Data as given in patent publication US3966930A, “Phenothiazine derivatives, compositions thereof and methods of preparation thereof” (Kefalas A/S, priority 1973, dated 1976).
Like-named read-outs stand apart in the source and are kept apart here.

System: methylphenidate
Assay: Methylphenidate antagonism in mice (rapid screening test for neuroleptic drugs)
Type: in vivo, NMRI male mice
Conditions: Mus musculus, ip
Procedure: 40 grams of 4-(2-hydroxyethyl)piperidine were then added, and the mixture heated for 17 hours at 90° Centigrade. The mixture was cooled, poured into water, extracted with 500 milliliters of ether, the ether extract washed five times with water and dried over anhydrous magnesium sulphate. The oxalate of 2-trifluoromethyl-7-fluoro-10-(3'-(4-(2-hydroxyethyl)piperidin-1-yl)propyl)phenothiazine was precipitated from acetone-/ether (1:1) and melts at 76°-80° Centigrade. The pharmacological testing of the compounds of the present invention consisted of a standard and reliable, published test showing the neuroleptic activity of the compounds in that they antagonize central nervous stimulating compounds such as amphetamine and methylphenidate. […] 1971, 29, suppl. 4, 44.
The test may briefly be described as follows:
As animals were used NMRI male mice weighing 18-25 grams. 3 × 2 mice are used for each dose level.
2, 6 or 24 hours after i.p.injection of test substance, methylphenidate, 60 mg/kg, is injected s.c. After administration of methylphenidate the mice are placed in the observation cages, 2 in each cage, where they remain for 2, 6 or 24 hours. The cages are placed on corrugated paper, the corrugations facing upwards. It is examined whether or not the mice have been biting the corrugated paper. […] If one or more of the control pairs have also not been biting the corrugated paper, the test has to be repeated on a new set of mice. The following novel substances of Formula I were tested: […]
As reference substances were used the corresponding known phenothiazines having no fluorine substitution at position 7, namely fluphenazine, perphenazine, thioproperazine, acetophenazine and chlorpromazine respectively.

[1] = 2 h, read-out: Methylphenidate Antagonism ED50, 2h
[2] = 6 h, read-out: Methylphenidate Antagonism ED50, 6h
[3] = 24 h, read-out: Methylphenidate Antagonism ED50, 24h
[4] = 2 h after i.p. injection of test substance, methylphenidate 60 mg/kg s.c., mice, read-out: Methylphenidate Antagonism ED50, 2h
[5] = 6 h after i.p. injection of test substance, methylphenidate 60 mg/kg s.c., mice, read-out: Methylphenidate Antagonism ED50, 6h
[6] = 24 h after i.p. injection of test substance, methylphenidate 60 mg/kg s.c., mice, read-out: Methylphenidate Antagonism ED50, 24h

| SMILES | ED50 [1] [mg/kg] | ED50 [2] [mg/kg] | ED50 [3] [mg/kg] | ED50 [4] [mg/kg] | ED50 [5] [mg/kg] | ED50 [6] [mg/kg] |
| --- | --- | --- | --- | --- | --- | --- |
| CN(C)CCCN1c2ccccc2Sc2ccc(Cl)cc21 [Chlorpromazine] | 3.3 | > 20 | > 20 | – | – | – |
| OCCN1CCN(CCCN2c3ccccc3Sc3ccc(Cl)cc32)CC1 [Perphenazine] | 0.08 | 0.55 | > 5 | – | – | – |
| CN(C)CCCN1c2ccc(F)cc2Sc2ccc(Cl)cc21 [Lu 10-152, 2-chloro-7-fluoro-10-(3'-dimethylaminopropyl)-phenothiazine] | – | – | – | 2 | 2.1 | > 20 |
| OCCN1CCN(CCCN2c3ccc(F)cc3Sc3ccc(Cl)cc32)CC1 [Lu 10-125, 2-chloro-7-fluoro-10-(3'-(4-(2-hydroxyethyl)-1-piperazinyl)propyl)-phenothiazine] | – | – | – | 0.06 | 0.05 | > 5 |
| OCCN1CCN(CCCN2c3ccc(F)cc3Sc3ccc(C(F)(F)F)cc32)CC1 [Lu 10-116, 2-trifluoromethyl-7-fluoro-10-(3'-(4-(2-hydroxyethyl)-piperazine-1-yl)propyl)phenothiazine] | – | – | – | 0.11 | 0.01 | 0.08 |
| CC(=O)c1ccc2c(c1)N(CCCN1CCN(CCO)CC1)c1ccccc1S2 [Acetophenazine] | – | – | – | 0.2 | 4.4 | > 10 |
| CN1CCN(CCCN2c3ccccc3Sc3ccc(S(=O)(=O)N(C)C)cc32)CC1 [Thioproperazine] | – | – | – | 0.28 | 1.2 | > 5 |
| CC(=O)c1ccc2c(c1)N(CCCN1CCN(CCO)CC1)c1ccc(F)cc1S2 [Lu 11-087, 2-acetyl-7-fluoro-10-(3'-(4-(2-hydroxyethyl)-1-piperazinyl)-propyl)phenothiazine] | – | – | – | 0.06 | 0.07 | > 1.25 |
| OCCN1CCN(CCCN2c3ccccc3Sc3ccc(C(F)(F)F)cc32)CC1 [Fluphenazine] | – | – | – | 0.08 | 0.03 | > 2.5 |
| CN1CCN(CCCN2c3ccc(F)cc3Sc3ccc(S(=O)(=O)N(C)C)cc32)CC1 [Lu 11-075, 2-dimethylsulfamoyl-7-fluoro-10-(3'-(4-methyl-piperazin-1-yl)-propyl)phenothiazine] | – | – | – | 0.7 | 0.44 | > 5 |
